Laboratory results taken from patent publication US8709451B2, “Stable nanoemulsions for ultrasound-mediated drug delivery and imaging” (University of Utah Research Foundation, priority 2010, dated 2014).

Columns and labels:
[1] = system: A2780 ovarian cancer cells; experiment: Confocal imaging of DOX uptake by substrate-attached cells without ultrasound; assay type: cell-based; conditions: no ultrasound, 20 μg/mL DOX
Experimental: A2780 cells were grown on cover glass in an 8 well cover glass chamber (LabTek chambered cover glass, NUNC, Rochester, N.Y.), and incubated with either, DOX dissolved in PBS, DOX-loaded 1.4% PEG-PCL micelle solution, or DOX-loaded 1% PFCE or PFP emulsions. Hoechst 33258 (Sigma Aldrich, St Louis, Mo.) stain was used to identify the nuclei of the A2780 cancer cells. Confocal fluorescent images of the cells were obtained using inverted confocal microscope (Olympus IX81, Olympus America Inc., Center Valley, Pa.); and the images were processed using ImageJ software. Emission filters of 570 nm for DOX and 480 nm for Hoechst were selected for imaging. In some experiments, DAPI was added to stain the cells before incubation with DOX and ultrasound exposure as discussed below.
A2780 drug sensitive cells, grown on chambered cover slip were incubated with different DOX formulations and confocal fluorescent images were obtained (FIGS. 14 and 15). Different image slices of the cell layer attached to the cover slip were recorded at an incremental step of 0.5 μm depth from the bottom to top of the cell layer (z-direction). The images recorded were stacked in z-direction and processed using ImageJ. The brightness and contrast ratios of magnified insets of the images were modified to reveal the intracellular distribution of fluorescence. […]
DOX fluorescence inside the cells was characterized by the R/G ratio where R is the intensity of red color and G is that of green color at the same region of interest (ROI) inside the cells. This ratio is used because DOX absorbs green light that ignites its red fluorescence. The R and G values and ratios were measured using ImageJ software.
The red/green (R/G) ratio of the fluorescence inside the cells and R/G ratio of the background fluorescence from the cover slip were measured. […] The cells incubated with either PFCE or PFP droplets have lower fluorescence (R/G ratios of 0.31 and 0.14 for PFCE and PFP respectively) than the cells incubated with DOX in micellar solution (R/G ratio of 0.63). […]

[2] = system: A2780 ovarian cancer cells; experiment: Sonication of suspended cells with DOX formulations, confocal imaging; assay type: cell-based; conditions: 3-MHz CW ultrasound, DOX 10 μg/mL
Experimental: A2780 cells were lifted off the culture T-flasks with 1× Trypsin (0.25% trypsin, 0.02% EDTA, Sigma Aldrich, St Louis, Mo.). The cells were resuspended in media. This suspension was mixed 2:1 volume ratio with DOX-containing formulations with typical cell concentrations of 5.7×10^6 cells/mL. Two types of DOX solutions in PBS were used: hydrophilic hydrochloride salt DOX-HCl (20 μg/mL) or deprotonated DOX; the concentration in PBS was 20 μg/mL for either molecule. DOX formulations included deprotonated DOX incorporated in 1.4% PEG-PCL micellar solution or DOX incorporated in 1% PFCE or PFP PEG-PCL emulsion; DOX concentration was the same as in PBS solutions (20 μg/mL). […] Pressure was measured using ONDA needle hydrophone (Onda HNR-0500) (calibrated in October, 2009) placed in front of the probe with a distance of 0.5 cm from the probe. […] After ultrasound treatments, a droplet of the cell suspension was placed on a glass slide, and the fluorescence inside the cells was observed and quantified using confocal microscope as described above. […]

| SMILES | DOX penetration into cell nuclei [1] | effect of ultrasound on DOX penetration into cell nuclei [2] | cellular uptake of DOX [1] |
| --- | --- | --- | --- |
| COc1cccc2c1C(=O)c1c(O)c3c(c(O)c1C2=O)C[C@@](O)(C(=O)CO)C[C@@H]3O[C@H]1C[C@H](N)[C@H](O)[C@H](C)O1.Cl [hydrophilic DOX, doxorubicin] | red fluorescence in the nuclei |  |  |
| COc1cccc2c1C(=O)c1c(O)c3c(c(O)c1C2=O)C[C@@](O)(C(=O)CO)C[C@@H]3O[C@H]1C[C@H](N)[C@H](O)[C@H](C)O1 [deprotonated DOX, doxorubicin] | did not get into the nuclei | marginal | low cellular uptake |
